Measurements: publication PMC12171880, “Selectivity and Safety Characterization of a Xanthine–Imidazothiazole Lead Structure: a Novel Tryptophan Hydroxylase Inhibitor of Peripheral Serotonin Synthesis” (ACS Pharmacology & Translational Science, 2025)

Columns and labels:
[1] = test system: 97 targets (receptors, enzymes, and ion channels); test: Eurofins Diversity Panel, 97 binding, enzyme and uptake assays; details: 10 μM
Method: TPT-004 was evaluated at a concentration of 10 μM in a total of 97 binding, enzyme, and uptake assays (Diversity Panel) by Eurofins Cerep (Celle l’Evescault, France). Compound binding was calculated as % inhibition of the binding of a ligand specific to each target. The compound enzyme inhibition effect was calculated as percentage inhibition of the control enzyme activity. Results showing an inhibition (or stimulation for assays run under basal conditions) of >50% are considered to represent significant effects of the test compounds. Results showing an inhibition (or stimulation) between 25% and 50% are indicative of weak to moderate effects. Results showing an inhibition (or stimulation) lower than 25% are not considered significant and are mostly attributable to variability in the signal around the control level. […] In each experiment, and if applicable, the respective reference compound was tested concurrently with TPT-004, and the data were compared with historical values determined at Eurofins. […]
The results are expressed as a percent of control-specific binding: measured specific binding/control specific binding×100 and as a percent inhibition of control-specific binding: 100−(measured specific binding/control specific binding×100) obtained in the presence of TPT-004. […]

[2] = test system: Sprague–Dawley rats; test: Dose-range finding study in rats, hematology; type: in vivo, rat; design: red cell distribution width (RDW): unit not given here; details: for ERY / HCT / HGB / LEU / LYM / LYM (%) / MCH / MCHC / MCV / MON / MON (%) / MPV / NEU / NEU (%) / PCT / PDWc / PDWs / PLT / RDWc / RDWs: day 8
Method: TPT-004 was formulated in 0.5% (w/v) CMC-Na in water and administered by oral gavage (PO) twice daily (b.i.d.) with a 12 h interval to the treatment groups (3 male and 3 female Sprague–Dawley rats each) for 8 days (15 successive applications). Rats were dosed with 10, 45, and 200 mg/kg, i.e., daily doses of 20, 90, and 400 mg/kg. In addition, a control group was dosed at the same frequency as the vehicle (0.5% CMC-Na).
A blood sample of 100 μL was obtained from each rat by puncturing one of the lateral tail veins under short isoflurane anesthesia. Blood was collected in tubes containing lithium heparin and gently mixed. After centrifugation (10 min at 3000g, 4 °C), plasma was separated and stored at −20 °C until LC-MS analysis. In addition, on day 8, the rats were exsanguinated by cardiac puncture under isoflurane anesthesia. A volume of 100 μL of blood (K3-EDTA) was used for immediate cell blood count, while the rest of the blood was mixed with lithium heparin and centrifuged to generate plasma for clinical chemistry analysis.

[3] = 10, 45, or 200 mg/kg BID PO, 8 days

CCn1c(=O)[nH]c(=O)c2c1nc(Cc1cn3cc(C)sc3n1)n2CC1COC1 [TPT-004] was tested, and the “significant effects (more than 50% inhibition or stimulation) among 97 targets” value [1] was “a significant effect was observed only for the rat homolog of TH”, the ERY ([2]; 10 mg/kg PO BID) was 8.15e+12 L⁻¹ and the HCT ([2]; 10 mg/kg PO BID) was 49.64%. It also gave an HGB ([2]; 10 mg/kg PO BID) of 13.9 g/dL, an LEU ([2]; 10 mg/kg PO BID) of 1.308e+10 L⁻¹ and an LYM ([2]; 10 mg/kg PO BID) of 1.091e+10 L⁻¹. The “LYM (%)” value ([2]; 10 mg/kg PO BID) was 82.8%, the MCH ([2]; 10 mg/kg PO BID) was 17.1 pg and the MCHC ([2]; 10 mg/kg PO BID) was 28.0 g/dL. For the same compound, the MCV ([2]; 10 mg/kg PO BID) was 61 fL, the MON ([2]; 10 mg/kg PO BID) was 5.8e+08 L⁻¹ and the “MON (%)” value ([2]; 10 mg/kg PO BID) was 4.0%. For the same compound, the MPV ([2]; 10 mg/kg PO BID) was 8.2 fL, the NEU ([2]; 10 mg/kg PO BID) was 1.59e+09 L⁻¹ and the “NEU (%)” value ([2]; 10 mg/kg PO BID) was 13.3%. For the same compound, the PCT ([2]; 10 mg/kg PO BID) was 0.15%, the PDWc ([2]; 10 mg/kg PO BID) was 33.7% and the PDWs ([2]; 10 mg/kg PO BID) was 12.3 fL. The PLT ([2]; 10 mg/kg PO BID) was 1.69e+11 L⁻¹, the RDWc ([2]; 10 mg/kg PO BID) was 16.4% and the RDWs ([2]; 10 mg/kg PO BID) was 37.6 fL. It also gave an ERY ([2]; 45 mg/kg PO BID) of 8.12e+12 L⁻¹, an HCT ([2]; 45 mg/kg PO BID) of 48.67% and an HGB ([2]; 45 mg/kg PO BID) of 14.0 g/dL. For the same compound, the LEU ([2]; 45 mg/kg PO BID) was 1.748e+10 L⁻¹, the LYM ([2]; 45 mg/kg PO BID) was 1.446e+10 L⁻¹ and the “LYM (%)” value ([2]; 45 mg/kg PO BID) was 82.7%. For the same compound, the MCH ([2]; 45 mg/kg PO BID) was 17.3 pg, the MCHC ([2]; 45 mg/kg PO BID) was 28.8 g/dL and the MCV ([2]; 45 mg/kg PO BID) was 60 fL. The MON ([2]; 45 mg/kg PO BID) was 1.07e+09 L⁻¹, the “MON (%)” value ([2]; 45 mg/kg PO BID) was 6.2% and the MPV ([2]; 45 mg/kg PO BID) was 8.3 fL. The NEU ([2]; 45 mg/kg PO BID) was 1.95e+09 L⁻¹, the “NEU (%)” value ([2]; 45 mg/kg PO BID) was 11.1% and the PCT ([2]; 45 mg/kg PO BID) was 0.08%. For the same compound, the PDWc ([2]; 45 mg/kg PO BID) was 36.1%, the PDWs ([2]; 45 mg/kg PO BID) was 13.9 fL and the PLT ([2]; 45 mg/kg PO BID) was 1.04e+11 L⁻¹. For the same compound, the RDWc ([2]; 45 mg/kg PO BID) was 17.2%, the RDWs ([2]; 45 mg/kg PO BID) was 38.7 fL and the “red cell distribution width (RDW)” value ([2]; 200 mg/kg BID, vehicle 16.4 ± 0.8, p = 0.0109) was 19.3 ± 1.6. The ERY ([2]; 200 mg/kg PO BID) was 8.03e+12 L⁻¹, the HCT ([2]; 200 mg/kg PO BID) was 45.70% and the HGB ([2]; 200 mg/kg PO BID) was 13.1 g/dL. For the same compound, the LEU ([2]; 200 mg/kg PO BID) was 1.534e+10 L⁻¹, the LYM ([2]; 200 mg/kg PO BID) was 1.263e+10 L⁻¹ and the “LYM (%)” value ([2]; 200 mg/kg PO BID) was 82.9%. The MCH ([2]; 200 mg/kg PO BID) was 16.4 pg, the MCHC ([2]; 200 mg/kg PO BID) was 28.7 g/dL and the MCV ([2]; 200 mg/kg PO BID) was 57 fL. For the same compound, the MON ([2]; 200 mg/kg PO BID) was 7.4e+08 L⁻¹, the “MON (%)” value ([2]; 200 mg/kg PO BID) was 4.8% and the MPV ([2]; 200 mg/kg PO BID) was 8.3 fL. For the same compound, the NEU ([2]; 200 mg/kg PO BID) was 1.97e+09 L⁻¹, the “NEU (%)” value ([2]; 200 mg/kg PO BID) was 12.3% and the PCT ([2]; 200 mg/kg PO BID) was 0.14%. It also gave a PDWc ([2]; 200 mg/kg PO BID) of 35.8%, a PDWs ([2]; 200 mg/kg PO BID) of 13.7 fL and a PLT ([2]; 200 mg/kg PO BID) of 1.79e+11 L⁻¹. The RDWc ([2]; 200 mg/kg PO BID) was 19.3%, the RDWs ([2]; 200 mg/kg PO BID) was 40.8 fL and the “hematology parameters, overall” value [2, 3] was “did not alter the hematology parameters”. For the same compound, the “number of platelets (PLT), differences to control” value [2, 3] was “these differences were not significant”.
